From patent US8153784B2, “Imaging of enzyme activity” (The General Hospital Corporation, priority 2004, dated 2012)

Key:
Myeloperoxidase (MPO) = biological target: T1, Myeloperoxidase (MPO) (Homo sapiens, UniProt P05164); experiment: MPO-mediated oligomerization of 2Gd^3+: UV, HPLC, MALDI-MS, relaxivity; assay type: biochemical; conditions: for degree of polymerization (N) of oligomerized products: MPO/H2O2, MALDI-MS
T1 construct: purchased Biodesign Int
T1 sequence (P05164 49-745): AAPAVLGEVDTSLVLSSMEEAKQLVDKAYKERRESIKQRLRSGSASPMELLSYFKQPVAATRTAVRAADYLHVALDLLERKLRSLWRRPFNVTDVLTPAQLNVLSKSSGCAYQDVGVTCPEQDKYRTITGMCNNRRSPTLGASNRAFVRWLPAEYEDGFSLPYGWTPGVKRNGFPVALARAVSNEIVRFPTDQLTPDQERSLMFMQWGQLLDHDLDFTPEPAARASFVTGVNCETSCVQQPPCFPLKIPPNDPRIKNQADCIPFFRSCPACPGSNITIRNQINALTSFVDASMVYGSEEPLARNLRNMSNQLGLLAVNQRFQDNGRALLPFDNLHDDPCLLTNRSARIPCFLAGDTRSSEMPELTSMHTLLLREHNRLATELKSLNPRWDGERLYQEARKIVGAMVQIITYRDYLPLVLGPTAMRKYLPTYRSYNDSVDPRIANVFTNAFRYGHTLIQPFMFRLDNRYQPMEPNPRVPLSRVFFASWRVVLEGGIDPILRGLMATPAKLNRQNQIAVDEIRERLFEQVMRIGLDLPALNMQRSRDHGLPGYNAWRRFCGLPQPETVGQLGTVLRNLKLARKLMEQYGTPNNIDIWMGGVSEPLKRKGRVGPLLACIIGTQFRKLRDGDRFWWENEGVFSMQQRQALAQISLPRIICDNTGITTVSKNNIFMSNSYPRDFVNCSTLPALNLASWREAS
Protocol: Myeloperoxidase was purchased from Biodesign Int. and was used as received, activity was measured as described by Klebanoff, S. J.; Waltersdorph, A. M.; Rosen, H.; Methods in Enzymology. Vol. 105, p 399-403.
We incubated 0.6 mL of a solution 10^4M of Gd^3+2 at pH=7.2/25° with 4 units of MPO and an excess of H2O2 for 90 minutes. […] The intensity of these new bands increased for a period of about 90 min, and that 90% of the change could be observed within first 30 min. The reaction was quenched by freezing the mixture in liquid N2. […] However, higher N value species were undetectable.
Four solutions with concentrations ranging from 10^−4 to 10^−3 where separately incubated as above and the T1 value were measured at 0.47T using standard inverse recovery sequence. The fitting of these values, following published procedures, yielded a r1=5.9 mM^−1s^−1. […] For longer incubation times, no linear correlation of T1 from Gd concentration could be obtained due to the precipitation of CA at millimolar concentrations. Lower relaxivity increase (32%) was observed when the activity of the enzyme was lowered to 1 unit.
Further characterization of r1 effects modulated by MPO was accomplished by using a 4×2 well plate array of samples prepared as shown in FIG. 14: Row 1 contained 0.3 mL Gd-DTPA-diSer solutions at pH 7.2; Row 2 included the samples the same concentrations and 4 units of MPO and 2 μL of a 3% of aqueous H2O2. Fitting the T1 values of the wells in row 1 afforded r1 of 4.7 mM^−1s^−1. […] In this case, we observed precipitation of insoluble products during the MRI scan. The fitting of the values measured in other 3 wells, the relaxivity was 5.5 mM^−1s^−1.
Indium-111 labeled bis-5-HT-DTPA was prepared by using transchelation from ^111In-oxiquinoline complex (oxine, Cardinal Health, Cleveland Ohio). To prepare ^111In-bis-5-HT-DTPA, 50 μg of bis-5-HT-DTPA (1 mg/ml) were mixed with 1 mCi ^111In-oxiquinoline solution in 0.7-1.0 ml saline and incubated for 1 hour under argon. Transchelation and purity was controlled by HPLC (Discovery C-18 column, 25×3 mm, Supelco) using 0-55% gradient of acetonitrile in water. Human myeloperoxidase was obtained from BioDesign, Inc., and its activity determined by using the method described by Klebanoff. To determine if the Gd compounds were substrates for human MPO, MPO-mediated oligomerization was monitored by size exclusion HPLC and by measuring ΔT1 on a Bruker Minispec 120 NMR spectrometer using a standard inversion recovery sequence. The degree of oligomerization was determined by mass spectroscopy (MALDI-MS).

[1] = biological target: T2, horseradish peroxidase (HRP) (Armoracia rusticana, UniProt P00433); experiment: Pseudo-first-order rate constants of HRP-mediated conversion (relaxation times over time, 0.47 T); assay type: biochemical, horseradish; parameters: purchased Sigma-Aldrich type XII (catalogue number not given)
T2 sequence (P00433 31-338): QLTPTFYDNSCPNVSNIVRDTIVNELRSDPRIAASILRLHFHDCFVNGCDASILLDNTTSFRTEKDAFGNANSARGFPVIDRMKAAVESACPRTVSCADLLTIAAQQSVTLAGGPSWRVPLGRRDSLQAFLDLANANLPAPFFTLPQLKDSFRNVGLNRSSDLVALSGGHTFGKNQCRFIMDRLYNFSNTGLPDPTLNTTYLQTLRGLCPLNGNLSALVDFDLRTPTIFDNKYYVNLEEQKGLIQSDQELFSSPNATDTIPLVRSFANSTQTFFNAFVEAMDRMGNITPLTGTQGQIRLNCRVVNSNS
Protocol: Kinetics of the samples were observed by measuring T1 and T2 at 0.47 T and 40° C. of the samples over at least a 24 hour period. At different time points, 1 M of sodium azide (final concentration=0.17 M) was added to stop the enzyme mediated reaction. The resultant progress curve was fitted with an empirical mathematical model and analyzed according to the Guggenheim method to obtain the pseudo-first-order rate constants (Guggenheim E A. Philos. Mag. 1926; 2:538).
An important property of a suitable substrate for an enzyme is the kinetics of enzymatic reaction. To determine the utility of the paramagnetic complexes as suitable substrates for human myeloperoxidase (MPO), we measured the pseudo-first-order rate constant of these substrates in MPO, and compared to the same substrates' reactions in Horse Radish Peroxidase (HRP) by monitoring the changes in relaxation time over time. […] The results shown were obtained using T1 measurements. T2 measurements yielded nearly identical results. The results are presented as mean±SD. N/A=not applicable.

Row | SMILES | increase of r1 compared with the initial substrate (Myeloperoxidase (MPO); 0.47T, 4 units of MPO) [%] | r1 (Myeloperoxidase (MPO); 0.47T, 4 units of MPO, H2O2) [mM⁻¹ s⁻¹] | relaxivity increase (Myeloperoxidase (MPO); 0.47T, enzyme activity lowered to 1 unit) [%] | fraction of the UV absorbance change observed within first 30 min (Myeloperoxidase (MPO); 10^4M, pH=7.2/25°, 4 units of MPO, excess H2O2) [%] | conversion (Myeloperoxidase (MPO); HPLC after addition of MPO) [%] | degree of polymerization (N) of oligomerized products (Myeloperoxidase (MPO); listed as Gd^3+2) | degree of polymerization (N) of oligomerized products (Myeloperoxidase (MPO); listed as bis-5-HT-DTPA(Gd)) | relaxivity (Myeloperoxidase (MPO); well plate at 1.5T, 4 units of MPO and H2O2, fitting of 3 wells) [mM⁻¹ s⁻¹] | minimum increase of relaxivity (Myeloperoxidase (MPO); well plate at 1.5T, range 10^−4 to 5 10^−4) [%] | fraction of the final relaxation rate obtained within the first 5 minutes [1] | Pseudo first-order rate constant ([1]; from T1 measurements, mean±SD) [s⁻¹]
1 | O=C([O-])CN(CCN(CC(=O)[O-])CC(=O)NCCc1c[nH]c2ccc(O)cc12)CCN(CC(=O)[O-])CC(=O)NCCc1c[nH]c2ccc(O)cc12.[Gd+3] [2Gd^3+] | 37 | 5.9 | 32 | 90 | 99.5 | 1-4 | up to 5 | 5.5 | ≥ 17 | – | –
2 | CC(C(=O)NCC(=O)NCCc1c[nH]c2ccc(O)cc12)N1CCN(CC(=O)[O-])CCN(CC(=O)[O-])CCN(CC(=O)[O-])CC1.[Gd+3] (centres unmarked) [5-HT-DOTA(Gd), Glycylmethyl DOTA(Gd) 5-Hydroxytryptamide] | – | – | – | – | – | – | – | – | – | more than 80% | 0.01
